This assay has as its target T1, WcaG (KP3709) (Klebsiella pneumoniae, UniProt A0ACD7U4D6).
T1 construct: His-tagged (pET28a), expressed in E. coli BL21 star (DE3)
Description: HPLC product analysis. The conditions noted are these: coupled with Gmd from GDP-mannose, pH 8.0. Type of assay: biochemical. From the text: HPLC product analysis on WcaG (KP3709) | GDP-mannose+NADPH+KP3711+KP3709

SMILES strings stand for the structures.

The values that follow come from publication PMC3134468, “Functions of Some Capsular Polysaccharide Biosynthetic Genes in Klebsiella pneumoniae NTUH K-2044” (PLoS ONE, 2011).

In the case of `NC(=O)C1=CN([C@@H]2O[C@H](COP(=O)(O)OP(=O)(O)OC[C@H]3O[C@@H](n4cnc5c(N)ncnc54)[C@H](OP(=O)(O)O)[C@@H]3O)[C@@H](O)[C@H]2O)C=CC1` [NADPH], the HPLC product analysis result is “GDP-mannose+NADPH+KP3711+KP3709”.
